These results are taken from US8748621B2, “1,3-disubstituted 4-(aryl-X-phenyl)-1H-pyridin-2-ones” (Janssen Pharmaceuticals, Inc., priority 2007, dated 2014).

As a reminder, the melting point is the temperature, or range, at which the solid turns liquid.

One data set addresses T1, human mGluR2 receptor (Homo sapiens, UniProt Q14416).
T1 construct: expressed in transfected cells; host or cells: CHO cells (membrane preparation)
Kind of data set: [35S]GTPγS binding assay (GTPγS-PAM), membranes from CHO cells transfected with human mGluR2, glutamate at EC25. The following applies: positive allosteric modulation in presence of glutamate at EC25 concentration; averages of duplicate values of 11-concentration response curves; error about 0.3 log-units; read-out: GTPgS - hR2 PAM pEC50 (converted). The data set is classed as biochemical. The text has this:
The compounds provided in the present invention are positive allosteric modulators of mGluR2. These compounds appear to potentiate glutamate responses by binding to an allosteric site other than the glutamate binding site. The response of mGluR2 to a concentration of glutamate is increased when compounds of Formula (I) are present. Compounds of Formula (I) are expected to have their effect substantially at mGluR2 by virtue of their ability to enhance the function of the receptor. The behaviour of positive allosteric modulators tested at mGluR2 using the [^35S]GTPγS binding assay method described below and which is suitable for the identification of such compounds, and more particularly the compounds according to Formula (I), are shown in Table 4.
The [^35S]GTPγS binding assay is a functional membrane-based assay used to study G-protein coupled receptor (GPCR) function whereby incorporation of a non-hydrolysable form of GTP, [^35S]GTPγS (guanosine 5′-triphosphate, labelled with […] ^35S), is measured. The G-protein α subunit catalyzes the exchange of guanosine 5′-diphosphate (GDP) by guanosine triphosphate (GTP) and on activation of the GPCR by an agonist, [^35S]GTPγS, becomes incorporated and cannot be cleaved to continue the exchange cycle (Harper (1998) Current Protocols in Pharmacology 2.6.1-10, John Wiley & Sons, Inc.). […] Here we describe the use of the [^35S]GTPγS binding assay using membranes from cells transfected with the human mGluR2 receptor and adapted from Schaffhauser et al ((2003) Molecular Pharmacology 4:798-810) for the detection of the positive allosteric modulation (PAM) properties of the compounds of this invention.
Cho-cells were cultured to pre-confluence and stimulated with 5 mm butyrate for 24 hours, prior to washing in PBS, and then collection by scraping in homogenisation buffer (50 mM Tris-HCl buffer, pH 7.4, 4° C.). Cell lysates were homogenized briefly (15 s) using an ultra-turrax homogenizer. The homogenate was centrifuged at 23 500×g for 10 minutes and the supernatant discarded. The pellet was resuspended in 5 mM Tris-HCl, pH 7.4 and centrifuged again (30 000×g, 20 min, 4° C.). The final pellet was resuspended in 50 mM HEPES, pH 7.4 and stored at −80° C. in appropriate aliquots before use. Protein concentration was determined by the Bradford method (Bio-Rad, USA) with bovine serum albumin as standard.
Measurement of mGluR2 positive allosteric modulatory activity of test compounds in membranes containing human mGluR2 was performed using frozen membranes that were thawed and briefly homogenised prior to pre-incubation in 96-well microplates (15 μg/assay well, 30 minutes, 30° C.) in assay buffer (50 mM HEPES pH 7.4, 100 mM NaCl, 3 mM MgCl2, 50 μM GDP, 10 μg/ml saponin,) with increasing concentrations of positive allosteric modulator (from 0.3 nM to 50 μM) and either a minimal pre-determined concentration of glutamate (PAM assay), or no added glutamate. For the PAM assay, membranes were pre-incubated with glutamate at EC25 concentration, i.e. a concentration that gives 25% of the maximal response glutamate, and is in accordance to published data (Pin et al. (1999) Eur. J. Pharmacol. 375:277˜294). After addition of [^35S]GTPγS (0.1 nM, f.c.) to achieve a total reaction volume of 200 μl, microplates were shaken briefly and further incubated to allow [^35S]GTPγS incorporation on activation (30 minutes, 30° C.). The reaction was stopped by rapid vacuum filtration over glass-fibre filter plates (Unifilter 96-well GF/B filter plates, Perkin-Elmer, Downers Grove, USA) microplate using a 96-well plate cell harvester (Filtermate, Perkin-Elmer, USA), and then by washing three times with 300 μl of ice-cold wash buffer (Na2PO4.2H20 10 mM, NaH2PO4.H20 10 mM, pH=7.4). Filters were then air-dried, and 40 μl of liquid scintillation cocktail (Microscint-O) was added to each well, and membrane-bound [^35S]GTPγS was measured in a 96-well scintillation plate reader (Top-Count, Perkin-Elmer, USA). […]

T1 sequence (Q14416 19-872): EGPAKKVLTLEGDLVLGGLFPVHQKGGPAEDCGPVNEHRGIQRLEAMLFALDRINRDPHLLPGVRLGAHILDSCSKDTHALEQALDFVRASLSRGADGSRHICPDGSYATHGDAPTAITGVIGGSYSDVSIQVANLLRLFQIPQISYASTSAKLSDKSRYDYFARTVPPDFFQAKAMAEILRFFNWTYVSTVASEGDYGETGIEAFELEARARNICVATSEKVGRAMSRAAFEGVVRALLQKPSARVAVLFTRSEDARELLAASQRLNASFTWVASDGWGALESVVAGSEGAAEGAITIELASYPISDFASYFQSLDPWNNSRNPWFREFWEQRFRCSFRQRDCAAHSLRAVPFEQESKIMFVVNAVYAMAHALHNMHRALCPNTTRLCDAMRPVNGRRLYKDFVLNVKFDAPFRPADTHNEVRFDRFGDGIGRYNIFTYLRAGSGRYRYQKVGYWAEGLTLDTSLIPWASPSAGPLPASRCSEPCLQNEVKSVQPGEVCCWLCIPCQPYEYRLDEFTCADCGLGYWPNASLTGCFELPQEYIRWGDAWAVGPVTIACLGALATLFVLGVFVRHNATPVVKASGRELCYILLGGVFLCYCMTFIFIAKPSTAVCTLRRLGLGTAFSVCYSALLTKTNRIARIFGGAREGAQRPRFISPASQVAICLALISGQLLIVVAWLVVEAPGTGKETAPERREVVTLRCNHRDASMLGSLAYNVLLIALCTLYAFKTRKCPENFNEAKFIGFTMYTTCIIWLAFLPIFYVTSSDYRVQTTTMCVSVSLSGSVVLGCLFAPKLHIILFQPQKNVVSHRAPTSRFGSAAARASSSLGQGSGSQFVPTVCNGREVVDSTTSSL

For the molecule `CCCCn1ccc(-c2ccc(Oc3ccnc(C)c3)cc2)c(Cl)c1=O` [Compound 1, 1-Butyl-3-chloro-4-[4-(2-methylpyridin-4-yloxy)-phenyl]-1H-pyridin-2-one], the EC50 on human mGluR2 receptor was 251 nM.

In the case of `CCCCn1ccc(-c2ccc(Oc3ccnc(C)c3)cc2F)c(Cl)c1=O` [Compound 2, 1-Butyl-3-chloro-4-[2-fluoro-4-(2-methylpyridin-4-yloxy)-phenyl]-1H-pyridin-2-one], at human mGluR2 receptor, the EC50 was 282 nM.

Regarding `Cc1ccc(Oc2ccc(-c3ccn(CC4CC4)c(=O)c3Cl)cc2F)c(C)n1` [Compound 3, 3-Chloro-1-cyclopropylmethyl-4-[4-(2,6-dimethylpyridin-3-yloxy)-3-fluoro-phenyl]-1H-pyridin-2-one], the melting point worked out at 143.4 °C. For the same molecule, the EC50 at human mGluR2 receptor is 182 nM.

Regarding `CCCCn1ccc(-c2ccc(Oc3ccc(C(=O)O)cc3)cc2)c(Cl)c1=O` [Compound 4, 4-[4-(1-Butyl-3-chloro-2-oxo-1,2-dihydro-pyridin-4-yl)-phenoxy]-benzoic acid], the melting point was determined as 280.3 °C. In addition, the EC50 at human mGluR2 receptor is 138 nM.

For `Cc1cc(Oc2ccc(-c3ccn(CC4CC4)c(=O)c3C(F)(F)F)cc2F)cc(C)n1` [Compound 5, 1-Cyclopropylmethyl-4-[4-(2,6-dimethyl-pyridin-4-yloxy)-3-fluoro-phenyl]-3-trifluoromethyl-1H-pyridin-2-one], the melting point was found to be 161.8 °C. Also, the EC50 at human mGluR2 receptor was 75.9 nM.

Turning to `Cc1cc(Oc2ccc(-c3ccn(CCC(C)C)c(=O)c3Cl)cc2)ccn1` [Compound 6], the EC50 on human mGluR2 receptor was 170 nM.

Turning to `Cc1cc(Oc2ccc(-c3ccn(CCC4CC4)c(=O)c3Cl)cc2)ccn1` [Compound 7], the EC50 on human mGluR2 receptor was 174 nM.

On to `CCCCn1ccc(-c2ccc(Oc3ccnc(C)c3)c(F)c2)c(Cl)c1=O` [Compound 8], for which, on human mGluR2 receptor, the EC50 was 174 nM.

For the molecule `CCCCn1ccc(-c2ccc(Oc3cc(C)nc(C)c3)c(F)c2)c(Cl)c1=O` [Compound 9], the EC50 at human mGluR2 receptor was 234 nM.

Regarding `CCCCn1ccc(-c2ccc(Oc3cc(C)nc(C)c3)cc2F)c(Cl)c1=O` [Compound 10], the EC50 at human mGluR2 receptor was 200 nM.

As to `CCCCn1ccc(-c2ccc(Oc3ccnc(C)c3C)cc2F)c(Cl)c1=O` [Compound 11], the EC50 at human mGluR2 receptor is 67.6 nM.

For the molecule `CCCCn1ccc(-c2ccc(Oc3ccnc(C)c3C)c(F)c2)c(Cl)c1=O` [Compound 12], the EC50 at human mGluR2 receptor was 129 nM.

As for `Cc1cc(Oc2ccc(-c3ccn(CC4CC4)c(=O)c3Cl)cc2)ccn1` [Compound 13], the EC50 at human mGluR2 receptor was 513 nM.

Turning to `Cc1ccc(Oc2ccc(-c3ccn(CC4CC4)c(=O)c3Cl)cc2)c(C)n1` [Compound 14], the melting point worked out at 151.8 °C. Besides, the EC50 at human mGluR2 receptor is 138 nM.

Consider `CCCCn1ccc(-c2ccc(Oc3cccnc3C)c(Cl)c2)c(Cl)c1=O` [Compound 15], for which the EC50 on human mGluR2 receptor is 60.3 nM.

As for `CCCCn1ccc(-c2ccc(Oc3ccc(C)nc3C)cc2)c(Cl)c1=O` [Compound 16], the EC50 on human mGluR2 receptor was 67.6 nM.

`Cc1cc(Oc2ccc(-c3ccn(CC4CC4)c(=O)c3Cl)cc2Cl)ccn1` [Compound 17] returned a melting point of 120.8 °C. Further, at human mGluR2 receptor, the EC50 is 117 nM.

As for `CCCCn1ccc(-c2ccc(Oc3ccnc(C)c3)c(Cl)c2)c(Cl)c1=O` [Compound 18], on human mGluR2 receptor, the EC50 was 100 nM.

`Cc1cc(Oc2ccc(-c3ccn(CCC(C)C)c(=O)c3Cl)cc2Cl)ccn1` [Compound 19]: the melting point stood at 103.8 °C. Also, the EC50 at human mGluR2 receptor is 67.6 nM.

The molecule `Cc1ccc(Oc2ccc(-c3ccn(CC4CC4)c(=O)c3Cl)cc2Cl)cn1` [Compound 20] had a melting point of 111.8 °C. Besides, the EC50 at human mGluR2 receptor is 91.2 nM.

Molecule `Cc1ccc(Oc2ccc(-c3ccn(CCC(C)C)c(=O)c3Cl)cc2Cl)cn1` [Compound 21] yielded a melting point of 96.1 °C. The EC50 on human mGluR2 receptor was 46.8 nM.

Molecule `CCCCn1ccc(-c2ccc(Oc3ccc(C)nc3)c(Cl)c2)c(Cl)c1=O` [Compound 22] came in with a melting point of 79.7 °C. On human mGluR2 receptor, the EC50 is 46.8 nM.

Turning to `Cc1ncccc1Oc1ccc(-c2ccn(CC3CC3)c(=O)c2Cl)cc1Cl` [Compound 23], on human mGluR2 receptor, the EC50 is 126 nM.

`Cc1ncccc1Oc1ccc(-c2ccn(CC3CC3)c(=O)c2Cl)cc1` [Compound 24] came in with a melting point of 126.2 °C. Moreover, the EC50 on human mGluR2 receptor was 437 nM.

For `CCCCn1ccc(-c2ccc(Oc3cccnc3C)cc2)c(Cl)c1=O` [Compound 25], the EC50 on human mGluR2 receptor is 224 nM.

With `Cc1cc(Oc2ccc(-c3ccn(CCC4CC4)c(=O)c3Cl)c(F)c2)ccn1` [Compound 26], the EC50 at human mGluR2 receptor is 155 nM.

With `Cc1cc(Oc2ccc(-c3ccn(CC4CC4)c(=O)c3Cl)cc2F)ccn1` [Compound 27], the melting point was 176 °C. Besides, the EC50 on human mGluR2 receptor is 355 nM.

In turn, `Cc1cc(Oc2ccc(-c3ccn(CC4CC4)c(=O)c3Cl)c(F)c2)ccn1` [Compound 28] yielded a melting point of 131.8 °C. At human mGluR2 receptor, the EC50 is 363 nM.

The molecule `CCCCn1ccc(-c2ccc(Oc3cccnc3C)cc2F)c(Cl)c1=O` [Compound 29] registered a melting point of 108.4 °C. In addition, the EC50 on human mGluR2 receptor is > 10000 nM.

For the molecule `CCCCn1ccc(-c2ccc(Oc3ccc(C)nc3C)c(F)c2)c(Cl)c1=O` [Compound 30], the EC50 on human mGluR2 receptor is 46.8 nM.

For `Cc1cc(Oc2ccc(-c3ccn(CC4CC4)c(=O)c3Cl)cc2F)cc(C)n1` [Compound 31], the melting point came to 161.6 °C. For the same molecule, the EC50 on human mGluR2 receptor was 288 nM.

`Cc1cc(Oc2ccc(-c3ccn(CC4CC4)c(=O)c3Cl)c(F)c2)cc(C)n1` [Compound 32] showed a melting point of 148.6 °C. Also, the EC50 on human mGluR2 receptor is 372 nM.

For `Cc1ncccc1Oc1ccc(-c2ccn(CC3CC3)c(=O)c2Cl)cc1F` [Compound 33], the EC50 on human mGluR2 receptor was 617 nM.

Regarding `Cc1ncccc1Oc1ccc(-c2ccn(CC3CC3)c(=O)c2Cl)c(F)c1` [Compound 34], the melting point is 120.9 °C. In addition, the EC50 on human mGluR2 receptor is > 10000 nM.

On to `CCCCn1ccc(-c2ccc(Oc3ccc(C)nc3C)cc2F)c(Cl)c1=O` [Compound 35], for which the EC50 at human mGluR2 receptor was > 10000 nM.

Regarding `Cc1cc(C)nc(Oc2ccc(-c3ccn(CC4CC4)c(=O)c3Cl)c(F)c2)c1` [Compound 36], the EC50 on human mGluR2 receptor was 891 nM.

As for `CCCCn1ccc(-c2ccc(Oc3ccc(C(C)(C)O)cc3)cc2)c(Cl)c1=O` [Compound 37], on human mGluR2 receptor, the EC50 is 39.8 nM.

The molecule `Cc1cc(Oc2ccc(-c3ccn(CC4CC4)c(=O)c3C(F)(F)F)cc2F)ccn1` [Compound 38] registered a melting point of 203.9 °C. Besides, the EC50 at human mGluR2 receptor was 102 nM.
